# Assay results as given in patent US20170261494A1, “Disposable Single Cell Array for Personalized Diagnostics” (Northeastern University, priority 2016, published 2017).
# Where a name gives a salt, the structure may show the parent alone.
# Experiments:
# [1] = test system: HCT-116, HCT-116-siRNA-topo1 and HCT-116-siRNA-topo2 cells; assay: Single-cell array immunoblotting for topo1, topo2 and γH2AX in halo and nucleus; type: cell-based; conditions: alkaline solution, primary antibodies to topo1, topo2, γH2AX, fluorescent secondary antibodies
# Experimental: (§1) Identification of topoisomerase complexes with DNA and histones at single-cell level can provide mechanistic confirmation on drug- or radiation-DNA interaction. Three colorectal cancer cell lines, HCT-116 (normal topo1/topo2 expression), HCT-116-siRNA-topo1 (low topo1 expression) and HCT-116-siRNA-topo2 (low topo2 expression), are treated with two drugs (one targets topo1 and the other targets topo2), followed by immunoblotting with the array of invention. First, cells are treated with CPT-11 (topo1 drug), and processed for use with the invention using SYBR SAFE dye to reflect the extent of DNA damage. […] In a second experiment, CPT-11 treated cells are subjected to an alkaline solution to allow damaged DNA diffusion (without fluorescence staining), and then incubated with three primary antibodies (topo1, topo2 and γH2AX) for 10 min. After washing to remove excess antibodies, three fluorescent secondary antibodies against topo1, topo2 and γ-H2AX are added. After washing away excess antibodies, the three proteins are detected with fluorescence imaging. […] Parallel studies with VP-16, which targets topo2 enzyme is performed. […] Similar experiments are performed to test X-ray irradiated cells. The results are compared to provide information on drug actions.
# [2] = test system: fibroblast cells; assay: Paper-based single-cell array halo assay of DNA damage (NDF); conditions: drug concentration 50 μM (0 at 0 μM); FIG. 6E/6F
# Experimental: (§2) Fibroblast cells, human glioblastoma cells (A172) and breast cancer cells (MCF7) were cultured in standard conditions (5% CO2 in air at 37° C.) in RPMI-1640 medium supplemented with 10% (v/v) fetal bovine serum and 1% (v/v) penicillin/streptomycin. For obtaining individual cells, cells were trypsinized.
# (§3) After exposure to anticancer treatment (radiation or chemotherapy drug), cells were seeded on the cell array precursor at a density of 1×10^6 cells/ml, forming ordered single-cell arrays (FIG. 1A). The quality of single cell arrays was primarily determined by surface roughness of the substrate (FIGS. 3E-H). As the paper surface became smoother, more cells were attached, and the array became more ordered. The attachment probability was derived as the ratio between adsorbed cells and the number of micro-patches. The probability of single cell array increased as the number of layers increased from 25±3.1%, 70±3.5%, to 87±6.4% for 1, 3 and 5 layers of ink, respectively. Five layers of ink provided a high quality substrate for single cell array formation, making this method ideal for paper-based single-cell halo assay.
# (§4) After incubating cells on the paper for 30 min, unattached cells were rinsed away with PBS, followed by addition of 1.5 ml 1% low melting point (LGT)-agarose on paper. The substrate was kept at room temperature for 10 min to allow gel solidification. Then, cells on the paper were immersed in 0.3 M NaOH for 30 min at room temperature, and stained with diluted (×10000) SYBR green I solution for 15 min. After removing unbound dye, cells were imaged using an Olympus IX81 fluorescent microscope and the acquired images were analyzed with in-house image analysis software to quantify DNA damage. Each data point was averaged from at least 50 individual cells.
# (§5) An in-house MATLAB image processing software was developed for quantifying DNA damage. In order to isolate individual cells, images were thresholded using Otsu's method into 4 levels. The first level was considered background; the second and third levels were combined to label halo; and the fourth level was used to label the nucleus. All non-background levels were combined to form a binary image of a cell. The eccentricity of each cell object was measured on a scale of 0 to 1, where a score of 0 corresponded to a perfectly circular object and a score of 1 corresponded to a line. Cell objects with an eccentricity>0.5 were removed from the image on the assumption that they contain overlapping cells (due to deposition of un-patterned cells). FIGS. 4A-F show the process of automatic analysis of the single-cell array using MATLAB software. The original image was transferred from a color image to a grayscale image (FIG. 4A). […] DNA damage measurements were calculated based on the halos and nuclei labeled for each cell. […]
# [3] = test system: MCF7 cells; assay: as above; conditions: drug concentration 50 μM (0 at 0 μM); FIG. 6E/6F
# Experimental: as §2, §3, §4, §5
# [4] = test system: A172 cells; assay: as above; parameters: species or system human; conditions: drug concentration 50 μM (0 at 0 μM); FIG. 6E/6F
# Experimental: After incubating cells on the paper for 30 min, unattached cells were rinsed away with PBS, followed by addition of 1.5 ml 1% low melting point (LGT)-agarose on paper. The substrate was kept at room temperature for 10 min to allow gel solidification. […] After removing unbound dye, cells were imaged using an Olympus IX81 fluorescent microscope and the acquired images were analyzed with in-house image analysis software to quantify DNA damage. […]
# An in-house MATLAB image processing software was developed for quantifying DNA damage. […] The eccentricity of each cell object was measured on a scale of 0 to 1, where a score of 0 corresponded to a perfectly circular object and a score of 1 corresponded to a line. […] DNA damage measurements were calculated based on the halos and nuclei labeled for each cell. […]
# [5] = test system: HCT-116, HCT-116-siRNA-topo1 and HCT-116-siRNA-topo2 cells; assay: Single-cell array halo assay in colorectal cancer cell lines with normal or low topo1/topo2 expression; type: cell-based; conditions: SYBR SAFE dye; compared among HCT-116, HCT-116-siRNA-topo1 and HCT-116-siRNA-topo2
# Experimental: as §1
SMILES,Protein found in halos (topoisomerase trapped in damaged DNA) [1],NDF of fibroblast cells [2],NDF of MCF7 cells [3],NDF of A172 cells [4],Halo size (extent of DNA damage) [5]
COc1cc([C@@H]2c3cc4c(cc3[C@@H](O[C@@H]3O[C@@H]5CO[C@@H](C)O[C@H]5[C@H](O)[C@H]3O)[C@H]3COC(=O)[C@H]23)OCO4)cc(OC)c1O [VP-16],Only topo2 enzymes are trapped in damaged DNAs and diffused in halos,–,–,–,–
"COc1cccc2c1C(=O)c1c(O)c3c(c(O)c1C2=O)C[C@@](O)(C(=O)CO)C[C@@H]3O[C@H]1C[C@H](N)[C@H](O)[C@H](C)O1 [doxorubicin, doxorubicin hydrochloride]",–,4.63,3.95,3.91,–
"CCc1c2c(nc3ccc(OC(=O)N4CCC(N5CCCCC5)CC4)cc13)-c1cc3c(c(=O)n1C2)COC(=O)[C@]3(O)CC [irinotecan, irinotecan hydrochloride]",Only topo1 is found in halos,4.34,4.05,–,smallest in HCT-116-siRNA-topo1 cells
